Test results reported in patent publication US8952024B2, “Herbicidal pyrimidone derivatives” (E I du Pont de Nemours and Company, priority 2009, dated 2015).

Tests used:
Format in all cases: in vivo
[1] = system: barnyardgrass (Echinochloa crus-galli); assay: Test A pre-/postemergence plant response
Outline: (§1)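 Both pre- and postemergence treatments are applied simultaneously, using chemicals formulated in a non-phytotoxic solvent mixture with surfactant. Postemergence plants are 2–10 cm high with one to two leaves. After approximately ten days in a greenhouse, injury is scored visually from 0 (none) to 100 (complete control) relative to untreated plants.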

[2] = system: pigweed (Amaranthus retroflexus); assay: Test A pre-/postemergence plant response
Outline: as §1

[3] = system: Italian ryegrass (Lolium multiflorum); assay: Test B pre-/postemergence plant response
Outline: (§2)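 Each species received compound formulated in non-phytotoxic solvent with surfactant, either at planting into a loam and sand blend or as a foliar spray once plants reached 2 to 18 cm in peat-based medium. Plants stayed in the greenhouse 13 to 15 days before visual evaluation against controls, scored 0 (no effect) to 100 (complete control).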

[4] = system: Surinam grass (Brachiaria decumbens); assay: Test B pre-/postemergence plant response
Outline: as §2

[5] = system: blackgrass (Alopecurus myosuroides); assay: Test B pre-/postemergence plant response
Outline: as §2

[6] = system: downy bromegrass (Bromus tectorum); assay: Test B pre-/postemergence plant response
Outline: as §2

[7] = system: goosegrass (Eleusine indica); assay: Test B pre-/postemergence plant response
Outline: as §2

[8] = system: large crabgrass (Digitaria sanguinalis); assay: Test B pre-/postemergence plant response
Outline: as §2

[9] = system: morningglory (Ipomoea coccinea); assay: Test B pre-/postemergence plant response
Outline: as §2

[10] = system: velvetleaf (Abutilon theophrasti); assay: Test B pre-/postemergence plant response
Outline: as §2

[11] = system: wheat (Triticum aestivum); assay: Test B pre-/postemergence plant response
Outline: as §2

[12] = system: woolly cupgrass (Eriochloa villosa); assay: Test B pre-/postemergence plant response
Outline: as §2

[13] = system: yellow nutsedge (Cyperus esculentus); assay: Test B pre-/postemergence plant response
Outline: as §2

[14] = Postemergence, 125 g ai/ha, visual injury, 0 to 100 scale (0 no effect, 100 complete control), approx. ten days
[15] = Postemergence, 500 g ai/ha, 0 to 100 scale, 0 = no effect, 100 = complete control, approx. ten days
[16] = Preemergence, 125 g ai/ha, 0 to 100 scale, 0 = no effect, 100 = complete control
[17] = Preemergence, 500 g ai/ha, visual injury, 0 to 100 scale (0 no effect, 100 complete control), approx. ten days
[18] = 250 g ai/ha, Preemergence, 0 to 100 scale
[19] = Postemergence, 62 g ai/ha, scale 0 (no effect) to 100 (complete control), 13 to 15 days
[20] = Postemergence, 125 g ai/ha, visual rating after 13 to 15 days, scale 0 (no effect) to 100 (complete control)
[21] = Preemergence, 31 g ai/ha, scale 0 to 100 (0 no effect, 100 complete control)
[22] = Preemergence, 125 g ai/ha, 0 to 100 scale
[23] = Postemergence, 31 g ai/ha, scale 0 to 100 (0 no effect, 100 complete control)
[24] = Postemergence, 250 g ai/ha, scale 0 to 100
[25] = Preemergence, 62 g ai/ha, scale 0 to 100, 0 no effect, 100 complete control
[26] = Postemergence, 125 g ai/ha, 0 to 100 scale where 0 is no effect and 100 is complete control
[27] = 62 g ai/ha, postemergence, 0 is no effect, 100 is complete control, 13 to 15 days
[28] = Postemergence, 31 g ai/ha, 0 to 100 scale (0 no effect, 100 complete control)
[29] = Postemergence, 125 g ai/ha, scale 0 to 100 (0 no effect, 100 complete control)
[30] = Postemergence, 250 g ai/ha, scale 0 to 100 (0 no effect, 100 complete control)

O=C1CCCC(O)=C1C(=O)c1cnc(-c2ccccc2)n(-c2ccccc2Br)c1=O [Compound 37]
Barnyardgrass plant response rating [1, 14]: 50 | Plant response rating, Barnyardgrass [1, 15]: 90 | Plant response rating, Barnyardgrass [1, 16]: 0 | Plant response rating, Barnyardgrass [1, 17]: 30 | Pigweed plant response rating [2, 14]: 100 | Plant response rating, Pigweed [2, 15]: 100 | Plant response rating, Pigweed [2, 16]: 50 | Plant response rating, Pigweed [2, 17]: 100 | Plant response rating, Ryegrass, Italian [3, 18]: 0 | Plant response rating, Ryegrass, Italian [3, 19]: 0 | Plant response rating, Ryegrass, Italian [3, 20]: 5 | Plant response rating, Ryegrass, Italian [3, 21]: 0 | Ryegrass, Italian plant response rating [3, 22]: 0 | Plant response rating, Surinam Grass [4, 18]: 100 | Plant response rating, Surinam Grass [4, 19]: 70 | Plant response rating, Surinam Grass [4, 20]: 75 | Plant response rating, Surinam Grass [4, 21]: 0 | Surinam Grass plant response rating [4, 22]: 55 | Plant response rating, Blackgrass [5, 18]: 10 | Plant response rating, Blackgrass [5, 23]: 0 | Plant response rating, Blackgrass [5, 19]: 0 | Plant response rating, Blackgrass [5, 20]: 5 | Blackgrass plant response rating [5, 24]: 30 | Plant response rating, Blackgrass [5, 21]: 0 | Plant response rating, Blackgrass [5, 25]: 0 | Blackgrass plant response rating [5, 22]: 5 | Plant response rating, Bromegrass, Downy [6, 18]: 0 | Plant response rating, Bromegrass, Downy [6, 23]: 0 | Plant response rating, Bromegrass, Downy [6, 19]: 10 | Plant response rating, Bromegrass, Downy [6, 20]: 15 | Bromegrass, Downy plant response rating [6, 24]: 45 | Plant response rating, Bromegrass, Downy [6, 21]: 0 | Plant response rating, Bromegrass, Downy [6, 25]: 0 | Bromegrass, Downy plant response rating [6, 22]: 0 | Plant response rating, Goosegrass [7, 18]: 100 | Plant response rating, Goosegrass [7, 19]: 85 | Plant response rating, Goosegrass [7, 20]: 85 | Goosegrass plant response rating [7, 24]: 95 | Plant response rating, Goosegrass [7, 21]: 0 | Goosegrass plant response rating [7, 22]: 80 | Plant response rating, Crabgrass, Large [8, 18]: 100 | Plant response rating, Crabgrass, Large [8, 23]: 70 | Plant response rating, Crabgrass, Large [8, 19]: 75 | Plant response rating, Crabgrass, Large [8, 20]: 85 | Crabgrass, Large plant response rating [8, 24]: 90 | Plant response rating, Crabgrass, Large [8, 21]: 0 | Plant response rating, Crabgrass, Large [8, 25]: 0 | Crabgrass, Large plant response rating [8, 22]: 10 | Plant response rating, Morningglory [9, 18]: 0 | Plant response rating, Morningglory [9, 19]: 70 | Plant response rating, Morningglory [9, 20]: 75 | Plant response rating, Morningglory [9, 21]: 0 | Plant response rating, Morningglory [9, 25]: 0 | Morningglory plant response rating [9, 22]: 0 | Plant response rating, Velvetleaf [10, 18]: 98 | Plant response rating, Velvetleaf [10, 19]: 80 | Plant response rating, Velvetleaf [10, 20]: 95 | Plant response rating, Velvetleaf [10, 21]: 0 | Velvetleaf plant response rating [10, 22]: 20 | Plant response rating, Wheat [11, 18]: 0 | Plant response rating, Wheat [11, 19]: 0 | Plant response rating, Wheat [11, 20]: 0 | Plant response rating, Wheat [11, 21]: 0 | Wheat plant response rating [11, 22]: 0 | Plant response rating, Cupgrass, Woolly [12, 18]: 70 | Plant response rating, Cupgrass, Woolly [12, 23]: 55 | Plant response rating, Cupgrass, Woolly [12, 19]: 65 | Plant response rating, Cupgrass, Woolly [12, 20]: 75 | Cupgrass, Woolly plant response rating [12, 24]: 100 | Plant response rating, Cupgrass, Woolly [12, 21]: 0 | Plant response rating, Cupgrass, Woolly [12, 25]: 0 | Cupgrass, Woolly plant response rating [12, 22]: 10 | Plant response rating, Nutsedge, Yellow [13, 18]: 90 | Plant response rating, Nutsedge, Yellow [13, 19]: 15 | Plant response rating, Nutsedge, Yellow [13, 20]: 25 | Plant response rating, Nutsedge, Yellow [13, 21]: 0 | Nutsedge, Yellow plant response rating [13, 22]: 20

COCCCn1c(-c2cccc(F)c2)ncc(C(=O)C2=C(O)CCCC2=O)c1=O [Compound 126]
Plant response rating, Barnyardgrass [1, 26]: 80 | Plant response rating, Barnyardgrass [1, 15]: 90 | Plant response rating, Barnyardgrass [1, 16]: 70 | Plant response rating, Barnyardgrass [1, 17]: 100 | Plant response rating, Pigweed [2, 26]: 90 | Plant response rating, Pigweed [2, 15]: 100 | Plant response rating, Pigweed [2, 16]: 100 | Plant response rating, Pigweed [2, 17]: 100 | Ryegrass, Italian plant response rating (0 to 100 scale) [3, 27]: 5 | Plant response rating, Ryegrass, Italian [3, 28]: 0 | Plant response rating, Ryegrass, Italian [3, 29]: 5 | Plant response rating, Ryegrass, Italian [3, 30]: 50 | Surinam Grass plant response rating (0 to 100 scale) [4, 27]: 80 | Plant response rating, Surinam Grass [4, 28]: 70 | Plant response rating, Surinam Grass [4, 29]: 85 | Plant response rating, Surinam Grass [4, 30]: 98 | Blackgrass plant response rating (0 to 100 scale) [5, 27]: 25 | Plant response rating, Blackgrass [5, 28]: 5 | Plant response rating, Blackgrass [5, 29]: 30 | Plant response rating, Blackgrass [5, 30]: 45 | Bromegrass, Downy plant response rating (0 to 100 scale) [6, 27]: 15 | Plant response rating, Bromegrass, Downy [6, 28]: 5 | Plant response rating, Bromegrass, Downy [6, 29]: 30 | Plant response rating, Bromegrass, Downy [6, 30]: 40 | Goosegrass plant response rating (0 to 100 scale) [7, 27]: 70 | Plant response rating, Goosegrass [7, 28]: 65 | Plant response rating, Goosegrass [7, 29]: 75 | Plant response rating, Goosegrass [7, 30]: 85 | Crabgrass, Large plant response rating (0 to 100 scale) [8, 27]: 80 | Plant response rating, Crabgrass, Large [8, 28]: 75 | Plant response rating, Crabgrass, Large [8, 29]: 85 | Plant response rating, Crabgrass, Large [8, 30]: 90 | Morningglory plant response rating (0 to 100 scale) [9, 27]: 85 | Plant response rating, Morningglory [9, 28]: 75 | Plant response rating, Morningglory [9, 29]: 100 | Plant response rating, Morningglory [9, 30]: 100 | Velvetleaf plant response rating (0 to 100 scale) [10, 27]: 90 | Plant response rating, Velvetleaf [10, 28]: 80 | Plant response rating, Velvetleaf [10, 29]: 95 | Plant response rating, Velvetleaf [10, 30]: 98 | Wheat plant response rating (0 to 100 scale) [11, 27]: 15 | Plant response rating, Wheat [11, 28]: 5 | Plant response rating, Wheat [11, 29]: 35 | Cupgrass, Woolly plant response rating (0 to 100 scale) [12, 27]: 75 | Plant response rating, Cupgrass, Woolly [12, 28]: 65 | Plant response rating, Cupgrass, Woolly [12, 29]: 85 | Plant response rating, Cupgrass, Woolly [12, 30]: 90 | Nutsedge, Yellow plant response rating (0 to 100 scale) [13, 27]: 75 | Plant response rating, Nutsedge, Yellow [13, 28]: 65 | Plant response rating, Nutsedge, Yellow [13, 29]: 80 | Plant response rating, Nutsedge, Yellow [13, 30]: 80
